Results from US20260042747A1, “KIT INHIBITORS, COMPOUNDS, PHARMACEUTICAL COMPOSITIONS, AND METHODS OF USE THEREOF” (Alivexis, Inc., priority 2022, published 2026).
pIC50: −log10 of the molar value. Where two headings read alike, the source gives them in different places.

Tests used:
[1] = target: recombinant human KIT tyrosine kinase protein (Homo sapiens (Human), UniProt P10721); experiment: KIT tyrosine kinase assay (ADP-Glo); format: biochemical
GIST-T1 cells = experiment: GIST cell proliferation assay; format: cell-based, human; conditions: read-out: GIST-T1 IC50
Description: Gastrointestinal stromal tumors (GIST) are the most common adult sarcomas and the majority (85-90%) of GIST cases are caused by oncogenic mutations in the receptor tyrosine kinases (RTKs), KIT or PDGFRA, which result in constitutive activation of these receptors. Human GIST-derived cell line GIST-Ti which harboring a mutation in exon 11 of KIT was used for the measurement of inhibitory potency of the compounds.
GIST-T1 cells were purchased from Cosmo Bio (Tokyo, Japan) and cultured in 10% FBS containing DMEM. The assay was performed in 96-well plates and the IC50 of each compound was determined by CellTiter Glo Assay reagent and Victor X5 Multilabel Counter. Cells were seeded at a density of 2000 cells/90 μL/well in 96-well plates. Compound dilution, cell treatment and determination of IC50 were performed as described in the assay methods of M-07e Cell Proliferation Assay.

M-07e cells = experiment: SCF-dependent M-07e cell proliferation assay; format: cell-based, human; conditions: read-out: M-07e IC50
[2] = Homo sapiens, GISTT1, 72 h, GIST-T1 cells (mutation in exon 11 of KIT), CellTiter Glo, 3 days
[3] = Homo sapiens, M-07e, 72 h, SCF-dependent M-07e cell proliferation, 3 days, CellTiter Glo

Sequence of recombinant human KIT tyrosine kinase protein (P10721 546-976): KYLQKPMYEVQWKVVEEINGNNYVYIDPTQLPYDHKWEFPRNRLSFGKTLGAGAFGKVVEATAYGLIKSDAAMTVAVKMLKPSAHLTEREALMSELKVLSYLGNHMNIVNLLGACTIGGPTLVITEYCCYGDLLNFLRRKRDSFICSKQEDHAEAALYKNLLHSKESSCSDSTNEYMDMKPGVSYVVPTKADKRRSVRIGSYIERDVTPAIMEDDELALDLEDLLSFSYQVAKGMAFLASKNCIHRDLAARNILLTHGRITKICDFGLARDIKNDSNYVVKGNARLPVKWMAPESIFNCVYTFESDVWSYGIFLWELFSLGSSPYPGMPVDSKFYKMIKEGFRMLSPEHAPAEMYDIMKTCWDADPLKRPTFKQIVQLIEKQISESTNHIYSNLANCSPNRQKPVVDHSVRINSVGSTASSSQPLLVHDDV

Compound | pIC50 ([1]; Table 98) | pIC50 ([1]; Table 99) | pIC50 (GIST-T1 cells; [2]) | also measured
Cn1c(=O)[nH]c2cc(C(=O)NCc3ccc(Oc4ccccc4F)nc3)ccc21 [Compound 1, N-((6-(2-Fluorophenoxy)pyridin-3-yl)methyl)-1-methyl-2-oxo-2,3-dihydro-1H-benzimid azole-5-carboxamide] | 7.24 |  | 7.24 | 
CC(C)n1c(=O)[nH]c2cc(C(=O)NCc3ccc(Oc4ccc(F)cc4)nc3)ccc21 [Compound 2, N-((6-(4-Fluorophenoxy)pyridin-3-yl)methyl)-1-isopropyl-2-oxo-2,3-dihydro-1H-benzim idazole-5-carboxamide] | 6.35 |  | 6.35 | 
O=C(NCc1ccc(C(F)(F)F)nc1)c1ccc2[nH]c(=O)[nH]c2c1 [Example 28] | 5.44 |  | 5.44 | 
O=C(NCc1ccc(Oc2cccc(F)c2)nc1)c1ccc2[nH]c(=O)[nH]c2c1 [Example 30] | 7.17 |  |  | pIC50 (GIST-T1 cells; Homo sapiens, GISTT1, 72 h): 7.17
O=C(NCc1ccc(Oc2ccc(Cl)cc2)nc1)c1ccc2[nH]c(=O)[nH]c2c1 [Example 31] | 7.15 |  |  | pIC50 (GIST-T1 cells; Homo sapiens, GISTT1, 72 h): 7.15
CCn1c(=O)[nH]c2cc(C(=O)NCc3ccc(Oc4ccc(F)cc4)nc3)ccc21 [Example 35] | 7.08 |  |  | pIC50 (GIST-T1 cells; Homo sapiens, GISTT1, 72 h): 7.08
COc1cc(C(=O)NCc2ccc(N(C)[C@H]3C[C@@H](C(F)(F)F)C3)nc2)cc2[nH]c(=O)[nH]c12 [Example 145] |  | 7.82 |  | pIC50 (M-07e cells; Homo sapiens, M-07e, 72 h): 6.29

The next lines start with results.

pIC50 ([1]; Table 98) | pIC50 ([1]; Table 99) | Compound | pIC50 (GIST-T1 cells; [2]) | also measured
7.25 |  | O=C(NCc1ccc(Oc2ccc(F)cc2)nc1)c1ccc2[nH]c(=O)[nH]c2c1 [Example 29] | 7.25 | 
7.54 |  | O=C(NCc1ccc(Oc2ccccc2F)nc1)c1ccc2[nH]c(=O)[nH]c2c1 [Example 32] | 7.54 | 
7.11 |  | Cn1c(=O)[nH]c2cc(C(=O)NCc3ccc(Oc4cccc(F)c4)nc3)ccc21 [Example 33] | 7.11 | 
 | 7.24 | CN(c1ccc(CNC(=O)c2cc(F)c3[nH]c(=O)[nH]c3c2)cn1)C1CC(F)(F)C1 [Example 144] |  | pIC50 (M-07e cells; [3]): 5.45
 | 7.52 | CN(c1ccc(CNC(=O)c2cc3[nH]c(=O)[nH]c3c(F)c2F)cn1)C1CCC(F)(F)C1 (stereo not drawn) [Example 146] |  | pIC50 (M-07e cells; [3]): 6.21
 | 7.64 | CN(c1ccc(CNC(=O)c2ccc3c([nH]c(=O)n3C)c2F)cn1)C1CCC(F)(F)C1 (stereo not drawn) [Example 147] |  | pIC50 (M-07e cells; [3]): 6.36
7.24 |  | Cn1c(=O)[nH]c2cc(C(=O)NCc3ccc(Oc4ccc(Cl)cc4)nc3)ccc21 [compound 34] |  | pIC50 (GIST-T1 cells; GIST-T1 cells (mutation in exon 11 of KIT), CellTiter Glo, 3 days): 7.24
 | 7.57 | CN(c1ccc(CNC(=O)c2cc(Cl)c3[nH]c(=O)[nH]c3c2)cn1)[C@H]1C[C@@H](C(F)(F)F)C1 [compound 141] |  | pIC50 (M-07e cells; SCF-dependent M-07e cell proliferation, 3 days, CellTiter Glo): 6.82
